The values that follow come from patent publication US10278962B2, “Tricyclic analogues, preparation method and uses thereof” (SHANGHAI INSTITUTE OF MATERIA MEDICA, CHINESE ACADEMY OF …, priority 2015, dated 2019).

As usually defined, the IC50 is the midpoint of a concentration-inhibition curve. Low readings indicate higher potency, high ones lower potency.

The target in assay [1] is T1, ACAT2 (Homo sapiens (Human), UniProt O75908). In words: Cholesterol oxidase method for ACAT activity in HepG2 cells, ACAT2. Type of assay: cell-based. As to conditions: 10 μg/ml cholesterol, 9 hours. The procedure:
HepG2 cells were used for testing the inhibitory effect of compounds at different concentrations on ACAT1 or ACAT2 activity, thereby obtaining IC50 to calculate SI(ACAT1-IC50/ACAT2-IC50).
HepG2 cells were cultured in a 6-well plate at a starting density of 4×10^5 cells per well for 24 hours, then the medium was replaced and 10 μg/ml of cholesterol and the compounds at different concentrations were added. The cells were cultured for another 9 hours and cholesterol amounts of the cells were measured with Cholesterol Assay kit.

Assay [2] concerns the target T1, ACAT2. The assay is described as follows: Inhibitory effect on ACAT2 activity, NBD22-fluorescent labeled sterol method in intact HepG2 cells. The note with it: for IC50: NBD22-fluorescent labeled sterol, 6 hours incubation; for inhibition rate % on ACAT2 activity: relative inhibition rate with Pyripyropene A (0.2 μM) as the 100% inhibition control. Format: cell-based. As for the experimental part: An inhibition curve was plotted based on that different concentrations of compounds would cause the fluorescence intensity to change by inhibiting the synthesis of the ester containing NBD22-fluorescent labeled sterol, thereby IC50 was calculated.
HepG2 cells were cultured in a 96-well plate at a starting density of 1.5×10^4 cells per well for 24 hours. After the cholesterol mixture was well mixed, the cells were cultured for another 24 hours. Then NBD22-fluorescent labeled sterol at a final concentration of 0.5 μg/ml, and compounds at a final concentration gradient of 0, 0.008, 0.04, 0.2, 1 and 5 μM were added. Three wells were set for each concentration. After incubating for 6 hours, the fluorescence intensity was measured using a fluorescence analyzer (E488, A535). The fluorescence intensity values were plotted against different concentrations of the compounds and IC50 was obtained.

T1 sequence (O75908 whole entry): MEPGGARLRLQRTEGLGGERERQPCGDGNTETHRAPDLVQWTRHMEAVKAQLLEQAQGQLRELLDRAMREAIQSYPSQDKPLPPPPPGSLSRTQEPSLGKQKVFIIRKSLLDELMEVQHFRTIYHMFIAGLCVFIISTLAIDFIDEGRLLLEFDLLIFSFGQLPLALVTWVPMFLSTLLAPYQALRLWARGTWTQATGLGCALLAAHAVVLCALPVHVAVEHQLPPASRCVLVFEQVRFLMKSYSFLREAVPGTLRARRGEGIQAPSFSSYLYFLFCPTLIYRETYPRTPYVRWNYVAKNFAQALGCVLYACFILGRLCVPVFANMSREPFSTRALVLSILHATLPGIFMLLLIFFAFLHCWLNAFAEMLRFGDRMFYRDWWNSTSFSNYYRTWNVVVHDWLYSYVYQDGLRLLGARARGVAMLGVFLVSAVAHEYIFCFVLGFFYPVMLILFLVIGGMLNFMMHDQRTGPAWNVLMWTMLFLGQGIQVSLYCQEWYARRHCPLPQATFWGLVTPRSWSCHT

On to `CC(O)(COC(=O)c1ccc(C#N)cc1)[C@@H]1C[C@H](OC(=O)c2ccc(C#N)cc2)[C@@]2(C)Oc3cc(-c4cccnc4)oc(=O)c3C(=O)[C@@H]2C1` (stereo partly shown) [Compound 13], for which the IC50 came to 12 nM against ACAT2 [1] and 23 nM against ACAT2 [2].
As for `CC(O)(COC(=O)c1ccc(C#N)cc1)[C@@H]1C[C@H](O)[C@@]2(C)Oc3cc(-c4cccnc4)oc(=O)c3C(=O)[C@@H]2C1` (stereo partly shown) [Compound 14], the IC50 was 129 nM on ACAT2 [1] and 103 nM against ACAT2 [2].
For the molecule `CC(=O)OCC(C)(OC(C)=O)[C@@H]1C[C@H](OC(C)=O)[C@@]2(C)Oc3cc(-c4cccnc4)oc(=O)c3C(=O)[C@@H]2C1` (stereo partly shown) [Compound 3], on ACAT2 [2], the “inhibition rate % on ACAT2 activity” value is listed as 90%.
With `CC(=O)OCC(C)(OC(C)=O)[C@@H]1C[C@H](OC(=O)c2ccc(C#N)cc2)[C@@]2(C)Oc3cc(-c4cccnc4)oc(=O)c3[C@@H](OC(C)=O)[C@@H]2C1` (stereo partly shown) [Compound 8], the half-inhibitory concentration (IC50) at ACAT2 [1] was determined as 61 nM; against ACAT2 [2], 86 nM.
`CC(=O)OC[C@](C)(OC(C)=O)[C@H]1C[C@@H](OC(C)=O)[C@]2(C)Oc3cc(-c4cccnc4)oc(=O)c3[C@@H](O)[C@@H]2C1` [Compound 22]: the IC50 against ACAT2 [1] was determined as 90 nM; against ACAT2 [2], 86 nM.
Turning to `CC(=O)OC[C@](C)(OC(C)=O)[C@@H]1C[C@@H]2[C@@H](O)c3c(cc(-c4cccnc4)oc3=O)O[C@@]2(C)[C@H](OC(C)=O)C1` [Compound 21], the IC50 against ACAT2 [1] turned out to be 55 nM; against ACAT2 [2], 78 nM.
For the molecule `CC(=O)OCC(C)(OC(C)=O)[C@H]1CC2[C@@H](O)c3c(cc(-c4cccnc4)oc3=O)O[C@]2(C)[C@@H](OC(C)=O)C1` (stereo in doubt) [Compound 16], the midpoint of inhibition on ACAT2 [2], the IC50, lay at 245 nM.
On to `CC(=O)OC[C@](C)(OC(C)=O)[C@@H]1C[C@@H]2[C@H](O)c3c(cc(-c4cccnc4)oc3=O)O[C@@]2(C)[C@H](OC(C)=O)C1` [Compound 26], for which the IC50 against ACAT2 [2] came to 433 nM.
On ACAT2 [2], `CC(=O)OCC(C)(OC(C)=O)[C@@H]1C[C@H](OC(C)=O)[C@@]2(C)Oc3cc(-c4cccnc4)oc(=O)c3[C@@H](O)[C@@H]2C1` (stereo partly shown) [Compound 15] had a half-inhibitory concentration (IC50) of 831 nM.
With `CC(=O)OCC(COC(C)=O)[C@@H]1C[C@H](OC(C)=O)[C@@]2(C)Oc3cc(-c4cccnc4)oc(=O)c3C(=O)[C@@H]2C1` [Compound 2], the “inhibition rate % on ACAT2 activity” value on ACAT2 [2] turned out to be 104%.
Regarding `CC(=O)OCC(C)(OC(C)=O)[C@@H]1C[C@H](OC(C)=O)[C@@]2(C)Oc3cc(-c4cccnc4)oc(=O)c3[C@@H](O)[C@@H]2C1` (stereo partly shown) [Compound 7], the IC50 is 147 nM against ACAT2 [1] and 152 nM on ACAT2 [2].
As for `CC(=O)OCC(COC(C)=O)[C@@H]1C[C@H](OC(C)=O)[C@@]2(C)Oc3cc(-c4cccnc4)oc(=O)c3[C@@H](O)[C@@H]2C1` [Compound 6], at ACAT2 [2], the “inhibition rate % on ACAT2 activity” value worked out at 90%.
Molecule `CC(=O)OC[C@](C)(O)[C@H]1C[C@@H](O)[C@]2(C)Oc3cc(-c4cccnc4)oc(=O)c3[C@H](O)[C@H]2C1` [Compound 29] came in with an IC50 against ACAT2 [2] of 81 nM.
